Results as given in ChEMBL document CHEMBL6121041, “Design and synthesis of isatin derivative payloaded peptide-drug conjugate as tubulin inhibitor against colorectal cancer” (Eur J Med Chem, 2025).
Calls of active or inactive are those of the source. The calls are words filed in the database; no cut-off is given here.

Experiments:
[1] = Cytotoxicity against HUVEC cells assessed as reduction in cell viability incubated for 48 hrs by MTT assay; assay type: toxicity, cell-based; conditions: human
[2] = Cytotoxicity against HK-2 cells assessed as reduction in cell viability incubated for 48 hrs by MTT assay; assay type: toxicity, cell-based; conditions: human
[3] = system: HCT-116; test: Antiproliferative activity against human HCT-116 cells assessed as reduction in cell viability incubated for 48 hrs by MTT assay; assay type: functional, cell-based; conditions: HCT-116, 48 h
[4] = system: 786-0; test: Antiproliferative activity against human 786-0 cells assessed as reduction in cell viability incubated for 48 hrs by MTT assay; assay type: functional, cell-based; conditions: 786-0, 48 h
[5] = system: HCC827; test: Antiproliferative activity against human HCC827 cells assessed as reduction in cell viability incubated for 48 hrs by MTT assay; assay type: functional, cell-based; conditions: HCC827, 48 h
[6] = system: K562; test: Antiproliferative activity against human K562 cells assessed as reduction in cell viability incubated for 48 hrs by MTT assay; assay type: functional, cell-based; conditions: K562, 48 h
[7] = system: MGC-803; test: Antiproliferative activity against human MGC-803 cells assessed as reduction in cell viability incubated for 48 hrs by MTT assay; assay type: functional, cell-based; conditions: MGC-803, 48 h
[8] = system: HepG2; test: Antiproliferative activity against human HepG2 cells assessed as reduction in cell viability incubated for 48 hrs by MTT assay; assay type: functional, cell-based; conditions: HepG2, 48 h
[9] = system: HCT-116; test: Inhibition of beta-tubulin expression in human HCT-116 cells at 0.2 to 0.8 uM incubated for 24 hrs by Western blot analysis; assay type: functional, cell-based; conditions: dose 0.2-0.8 µM
[10] = system: HCT-116; test: Induction of apoptosis in human HCT-116 cells assessed as increase in caspase-3 cleavage level at 0.2 to 0.8 uM incubated for 24 hrs by Western blot analysis; assay type: functional, cell-based; conditions: dose 0.2-0.8 µM
[11] = system: HCT-116; test: Induction of apoptosis in human HCT-116 cells assessed as increase in PARP cleavage at 0.2 to 0.8 uM incubated for 24 hrs by Western blot analysis; assay type: functional, cell-based; conditions: dose 0.2-0.8 µM
[12] = system: HCT-116; test: Induction of apoptosis in human HCT-116 cells assessed as downregulation of Bcl-2 protein at 0.2 to 0.8 uM measured within 24 hrs by Western blot analysis; assay type: functional, cell-based; conditions: dose 0.2-0.8 µM
[13] = system: HCT-116; test: Induction of apoptosis in human HCT-116 cells assessed as upregulation of Bax protein at 0.2 to 0.8 uM measured within 24 hrs by Western blot analysis; assay type: functional, cell-based; conditions: dose 0.2-0.8 µM
[14] = system: HCT-116; test: Cell cycle arrest in human HCT-116 cells assessed as accumulation of cells at G2/M phase by measuring decrease in CDK1 expression at 0.2 to 0.8 uM incubated for 24 hrs by Western blot analysis; assay type: functional, cell-based; conditions: dose 0.2-0.8 µM
[15] = system: HCT-116; test: Cell cycle arrest in human HCT-116 cells assessed as accumulation of cells at G2/M phase by measuring increase in cyclin B1 expression at 0.2 to 0.8 uM incubated for 24 hrs by Western blot analysis; assay type: functional, cell-based; conditions: dose 0.2-0.8 µM
[16] = system: HCT-116; test: Cell cycle arrest in human HCT-116 cells assessed as increase in p21 expression at 0.2 to 0.8 uM incubated for 24 hrs by Western blot analysis; assay type: functional, cell-based; conditions: dose 0.2-0.8 µM
[17] = system: HCT-116; test: Cell cycle arrest in human HCT-116 cells assessed as increase in p53 expression at 0.2 to 0.8 uM incubated for 24 hrs by Western blot analysis; assay type: functional, cell-based; conditions: dose 0.2-0.8 µM
[18] = system: HCT-116; test: Inhibition of colony formation in human HCT-116 cells at 0.4 to 0.8 uM measured after 10 days by crystal violet staining based inverted microscopic analysis; assay type: functional, cell-based; conditions: dose 0.4-0.8 µM, time 10.0 day
[19] = system: HCT-116; test: Inhibition of wound closure in human HCT-116 cells at 0.4 uM measured after 48 hrs by wound healing assay; assay type: functional, cell-based
[20] = system: HCT-116; test: Induction of apoptosis in human HCT-116 cells assessed as cell fragmentation at 0.4 to 0.8 microM measured after 24 hrs by microscopic analysis; assay type: functional, cell-based; conditions: dose 0.4-0.8 µM
[21] = system: HCT-116; test: Induction of apoptosis in human HCT-116 cells assessed as morphological changes at 0.4 to 0.8 microM measured after 24 hrs by microscopic analysis; assay type: functional, cell-based; conditions: dose 0.4-0.8 µM
[22] = system: HCT-116; test: Induction of apoptosis in human HCT-116 cells assessed as morphological changes at 0.4 to 0.8 microM measured after 48 hrs by microscopic analysis; assay type: functional, cell-based; conditions: dose 0.4-0.8 µM
[23] = system: HCT-116; test: Induction of apoptosis in human HCT-116 cells at 0.4 to 0.8 uM incubated for 24 hrs by Annexin V-FITC/PI staining based flow cytometric analysis; assay type: functional, cell-based; conditions: dose 0.4-0.8 µM
[24] = system: HCT-116; test: Cell cycle arrest in human HCT-116 cells assessed as accumulation of cells at G2/M phase at 0.4 to 0.8 uM incubated for 24 hrs by PI staining based flow cytometric analysis; assay type: functional; conditions: dose 0.4-0.8 µM
[25] = system: HCT-116; test: Induction of apoptosis in human HCT-116 cells assessed as increase in caspase-3 activation level at 0.8 uM measured after 24 hrs by Western blot analysis; assay type: functional, cell-based
[26] = system: HCT-116; test: Induction of apoptosis in human HCT-116 cells assessed as increase in PARP activation level at 0.8 uM measured after 24 hrs by Western blot analysis; assay type: functional, cell-based
[27] = system: HCT-116; test: Induction of apoptosis in human HCT-116 cells assessed as downregulation of Bcl-2 protein at 0.8 uM measured after 24 hrs by Western blot analysis; assay type: functional, cell-based
[28] = system: HCT-116; test: Induction of apoptosis in human HCT-116 cells assessed as upregulation of Bax protein at 0.8 uM measured after 24 hrs by Western blot analysis; assay type: functional, cell-based
[29] = system: HCT-116; test: Cell cycle arrest in human HCT-116 cells assessed as decrease in CDK1 expression at 0.8 uM incubated for 24 hrs by Western blot analysis; assay type: functional, cell-based
[30] = system: HCT-116; test: Cell cycle arrest in human HCT-116 cells assessed as increase in cyclin B1 expression at 0.8 uM incubated for 24 hrs by Western blot analysis; assay type: functional, cell-based
[31] = system: HCT-116; test: Cell cycle arrest in human HCT-116 cells assessed as increase in p21 expression at 0.8 uM incubated for 24 hrs by Western blot analysis; assay type: functional, cell-based
[32] = system: HCT-116; test: Cell cycle arrest in human HCT-116 cells assessed as increase in p53 expression at 0.8 uM incubated for 24 hrs by Western blot analysis; assay type: functional, cell-based
[33] = system: HCT-116; test: Inhibition of beta-tubulin expression in human HCT-116 cells at 0.8 uM incubated for 24 hrs by Western blot analysis; assay type: functional, cell-based
[34] = Toxicity in SPF-grade Balb/c nude mouse xenografted with human HCT-116 cells assessed as average body weight at 12 mg/kg, ip measured after 10 days; assay type: organism-based; conditions: in vivo, 240 h, time 10 day
[35] = system: HCT-116; test: Antitumor activity against human HCT-116 cells xenografted in SPF-grade Balb/c nude mouse model assessed as reduction in tumor size at 12 mg/kg, ip administered daily for 11 days by photographic analysis; assay type: functional, organism-based; conditions: time 11.0 day
[36] = system: HCT-116; test: Antitumor activity against human HCT-116 cells xenografted in SPF-grade Balb/c nude mouse model assessed as tumor growth inhibition at 12 mg/kg, ip administered daily for 11 days relative to control; assay type: functional; conditions: HCT-116, 264 h, time 11 day, read-out: TGI
[37] = system: HCT-116; test: Antitumor activity against human HCT-116 cells xenografted in SPF-grade Balb/c nude mouse model assessed as tumor growth inhibition at 45.17 mg/kg, ip administered daily for 11 days relative to control; assay type: functional; conditions: HCT-116, 264 h, time 11 day, read-out: TGI
[38] = system: HCT-116; test: Antitumor activity against human HCT-116 cells xenografted in SPF-grade Balb/c nude mouse model assessed as inhibition of tumor cell growth at 12 mg/kg, ip administered daily for 11 days by H and E staining based analysis; assay type: functional, organism-based; conditions: time 11.0 day

COc1ccc(CN2C(=O)C(=O)c3cc(-c4ccc(O)cc4)ccc32)cc1
IC50 at 48 h [1]: 18.1 µM
IC50 at 48 h [2]: 13.9 µM
IC50 [3]: 0.33 µM
IC50 [4]: 26.6 µM
IC50 [5]: 10.1 µM
IC50 [6]: 0.8 µM
IC50 [7]: 20.6 µM
IC50 [8]: > 100 µM
inhibition [9]: Active
Activity [10]: Active
Activity [11]: Active
Activity [12]: Active; Activation Of Intrinsic Apoptotic Pathway Observed
Activity [13]: Active; Activation Of Intrinsic Apoptotic Pathway Observed
Activity [14]: Active
Activity [15]: Active
Activity [16]: Active; Activation Of P53-Medisted Signaling Observed
Activity [17]: Active; Activation Of P53-Medisted Signaling Observed
inhibition [18]: Active
inhibition [19]: Active
Activity [20]: Active
Activity [21]: Active
Activity [22]: Active; More Evident Apoptotic State Observed
Activity [23]: Active
Activity [24]: Active
Activity [25]: Active
Activity [26]: Active
Activity [27]: Active
Activity [28]: Active
Activity [29]: Active
Activity [30]: Active
Activity [31]: Active
Activity [32]: Active
inhibition [33]: Active
Activity [34]: ~ 10 g
Activity [35]: Active
inhibition in vivo at 12 mg/kg [36]: 49%
inhibition in vivo at 45.17 mg/kg [37]: 61%
Activity [38]: Active

COc1ccc(CN2C(=O)C(=O)c3cc(-c4ccc(OC)cc4)cc(N)c32)cc1
IC50 at 48 h [1]: > 100 µM
IC50 at 48 h [2]: > 100 µM
IC50 [3]: > 100 µM
IC50 [4]: > 100 µM
IC50 [5]: 13.7 µM
IC50 [6]: 89.4 µM
IC50 [7]: > 100 µM
IC50 [8]: > 100 µM

COc1ccc(CN2C(=O)C(=O)c3cc(-c4ccc(C(=O)O)cc4)ccc32)cc1
IC50 at 48 h [1]: 34.7 µM
IC50 at 48 h [2]: 30.9 µM
IC50 [3]: 18.7 µM
IC50 [4]: 87.6 µM
IC50 [5]: 4.15 µM
IC50 [6]: > 100 µM
IC50 [7]: 91.1 µM
IC50 [8]: > 100 µM
